Results reported in patent US20210322469A1, “ZINC AND COPPER FOR THE PROPHYLAXIS AND TREATMENT OF COVID-19” (Regents of the University of Minnesota, priority 2020, published 2021).
Read-outs that look alike come from different tables or passages of the source.

Assays:
SARS-CoV-2 = format: in vivo; conditions: patients receiving zinc prophylactically for AMD or for treatment of AMD
[1] = molecular target: angiotensin converting enzyme 2 (ACE2) (Homo sapiens, UniProt Q9BYF1); conditions: Speth et al. 2014, cited from earlier work
angiotensin converting enzyme 2 (ACE2), sequence (Q9BYF1 18-805): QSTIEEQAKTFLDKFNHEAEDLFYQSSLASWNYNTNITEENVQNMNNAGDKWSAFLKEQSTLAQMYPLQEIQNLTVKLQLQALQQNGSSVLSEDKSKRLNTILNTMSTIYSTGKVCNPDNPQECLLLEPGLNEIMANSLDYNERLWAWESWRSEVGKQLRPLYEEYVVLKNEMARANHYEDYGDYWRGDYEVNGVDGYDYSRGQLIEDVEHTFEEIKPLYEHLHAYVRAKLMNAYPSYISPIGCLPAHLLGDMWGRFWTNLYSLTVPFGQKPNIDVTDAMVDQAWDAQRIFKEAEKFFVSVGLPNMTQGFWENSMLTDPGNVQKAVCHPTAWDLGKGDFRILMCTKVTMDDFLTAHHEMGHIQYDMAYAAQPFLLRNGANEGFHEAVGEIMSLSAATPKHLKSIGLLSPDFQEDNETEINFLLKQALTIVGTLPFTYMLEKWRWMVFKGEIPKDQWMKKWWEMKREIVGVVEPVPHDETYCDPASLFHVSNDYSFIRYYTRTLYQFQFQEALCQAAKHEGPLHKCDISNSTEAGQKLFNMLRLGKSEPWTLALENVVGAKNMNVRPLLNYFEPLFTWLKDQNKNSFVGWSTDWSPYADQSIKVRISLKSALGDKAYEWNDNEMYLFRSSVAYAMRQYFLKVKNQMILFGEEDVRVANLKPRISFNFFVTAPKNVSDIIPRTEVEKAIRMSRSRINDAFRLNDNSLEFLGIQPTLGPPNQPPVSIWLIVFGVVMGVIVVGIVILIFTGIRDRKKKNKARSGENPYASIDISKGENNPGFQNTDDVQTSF

For zinc, the COVID-19-related deaths (SARS-CoV-2) is given as “no COVID-19-related deaths”, the “inhibition of ACE2 function” value [1] is given as “inhibitor of ACE2 function” and the “inhibition of ACE2 function” value ([1]; listed as Zinc) is given as “can inhibit the function of ACE2”.
